± gives the expanded uncertainty stated by the source.

Data set [1] can be described thus: Molar enthalpy of transition or fusion. The note with it: Crystal; DSC.
The conditions of data set [2]: Crystal; DTA.

Consider `N=C(N)N.O=[N+]([O-])O` [guanidine nitrate], for which the “Molar enthalpy of transition or fusion” value in data set [1] was determined as 25.3 ± 0.61 kJ/mol. Further, the Normal melting temperature in data set [2] amounted to 214.02 ± 2 °C.

The record behind these values is the NIST ThermoML archive (doi:10.1016/j.fluid.2014.12.037).
